Source: article PMC4196226 (mBio, 2014)
Values after ≈ are worked out from the molar mass of the structure shown.

Experiments:
Assay type in all cases: cell-based
A. baumannii = test: MIC assay; details: Acinetobacter baumannii
K. pneumoniae = test: microbe, parasite or virus in culture; details: Klebsiella pneumoniae
S. maltophilia = test: MIC assay; details: Stenotrophomonas maltophilia
P. aeruginosa = test: microbe, parasite or virus in culture; details: Pseudomonas aeruginosa
B. cepacia = test: MIC assay; details: Burkholderia cepacia

With `C[C@@H](O)[C@H]1C(=O)N2C(C(=O)O)=C(S[C@@H]3CN[C@H](C(=O)N(C)C)C3)[C@H](C)[C@H]12` [MPM, meropenem] the MIC90 (A. baumannii) was 32 µg/mL (≈ 83.4 µM), the MIC90 (K. pneumoniae) was 32 µg/mL (≈ 83.4 µM) and the MIC90 (S. maltophilia) was over 64 µg/mL. It also gave an MIC90 (P. aeruginosa) of over 64 µg/mL and an MIC90 (B. cepacia) of 8 µg/mL (≈ 20.9 µM).
